Several values for one entry are separate records, joined by “and”; a condition that tells them apart may be missing. Equal entries are not always repeated.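 Following 48 hours of exposure in 96-well plates, responses at five concentrations were used to interpolate endpoints linearly. Here, GI50 denotes the concentration required for 50% inhibition of growth. Definition used: TGI = concentration required for complete inhibition of growth.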

Among the test systems are SK-MEL-28 melanoma; HL-60(TB) leukemia; HCT-116 colon; SK-MEL-2 melanoma; U251 CNS; NCI-H460 lung; HT29 colon; A498 renal; UACC-257 melanoma; K-562 leukemia; RPMI-8226 leukemia; BT-549 breast; CAKI-1 renal; PC-3 prostate; OVCAR-8 ovarian; SF-295 CNS.
Assay in all cases: DTP human tumour cell line panel, 48 h

Consider `COC(=O)/C=C/c1cc(OC)c2c(c1)C(C(=O)OC)C(c1ccc(OC)c(OC)c1)O2` (stereo not drawn), for which the total growth inhibition concentration (TGI) with SK-MEL-28 melanoma, with HL-60(TB) leukemia, with HCT-116 colon, with SK-MEL-2 melanoma, in the assay on U251 CNS and in the assay with NCI-H460 lung was more than 100 µM throughout. For the same compound, the TGI – broadly, the concentration giving total growth inhibition – with HT29 colon is more than 100 µM; in the assay on A498 renal, more than 100 µM; in the assay with UACC-257 melanoma it was more than 100 µM; in the assay on K-562 leukemia, more than 100 µM; with RPMI-8226 leukemia, more than 100 µM; in the assay with BT-549 breast it was 99.6 µM and > 100 µM. Moreover, the TGI in the assay on CAKI-1 renal, in the assay on PC-3 prostate, in the assay on OVCAR-8 ovarian and in the assay with SF-295 CNS was more than 100 µM each time. Further, the GI50 (usually the concentration at which growth is held to half of that of the control) in the assay on NCI-H460 lung was 48.6 µM and 15.7 µM; with A498 renal, 64.1 µM; with BT-549 breast, 29 µM and 6.01 µM.

Turning to `CC(C)=CCC/C(C)=C/Cc1cc(/C=C/c2cc(O)c(CC=C(C)C)c(O)c2)cc(O)c1O`, the TGI with SK-MEL-28 melanoma came to 17.5 µM; in the assay on HL-60(TB) leukemia it was 2.79 µM; with HCT-116 colon, 11.9 µM; in the assay on SK-MEL-2 melanoma it was 9.4 µM; in the assay with U251 CNS, 5 µM; in the assay with NCI-H460 lung it was 9.2 µM. Besides, the TGI in the assay on HT29 colon is 13.6 µM; with A498 renal, 20.6 µM; with UACC-257 melanoma it was 5.2 µM; in the assay on K-562 leukemia it was 10.4 µM; in the assay with RPMI-8226 leukemia it was 3.68 µM; with BT-549 breast, 13.3 µM. Further, the TGI is 16.9 µM in the assay with CAKI-1 renal, 11.9 µM in the assay on PC-3 prostate, 14.9 µM with OVCAR-8 ovarian and 18.2 µM in the assay on SF-295 CNS.

As to `Cc1sc2ncnc(NCCc3ccccc3)c2c1C`, the TGI in the assay with SK-MEL-28 melanoma came to 35 µM; in the assay on HL-60(TB) leukemia, 29.3 µM; in the assay on HCT-116 colon, 24.9 µM; in the assay on SK-MEL-2 melanoma it was 31.2 µM; with U251 CNS it was 26.7 µM; in the assay on NCI-H460 lung, 23.9 µM. Also, the TGI in the assay on HT29 colon is 45.3 µM; with A498 renal, 29 µM; with UACC-257 melanoma, 17.3 µM; with K-562 leukemia, 63.1 µM; in the assay with RPMI-8226 leukemia, 42.8 µM; in the assay with BT-549 breast, 62.9 µM. The TGI in the assay with CAKI-1 renal was found to be 56.7 µM; in the assay on PC-3 prostate it was 40.3 µM; in the assay with OVCAR-8 ovarian it was 38 µM; in the assay on SF-295 CNS, 36.9 µM.

In the case of `CCN(CC)c1ccc(/C=C/C2=NN(c3cccc(S(=O)(=O)O)c3)C3(C2)C(Cl)C(=O)N3c2nc3ccccc3s2)cc1` (stereo not drawn), the TGI in the assay with SK-MEL-28 melanoma was 63 µM; in the assay on HL-60(TB) leukemia, 4.01 µM; in the assay on HCT-116 colon, 24.1 µM; in the assay with SK-MEL-2 melanoma, 29.3 µM; with U251 CNS, 15.5 µM; in the assay on NCI-H460 lung, 25.8 µM. Besides, the TGI with HT29 colon is 33.9 µM; in the assay on A498 renal, 24.8 µM; with UACC-257 melanoma it was 22.6 µM; with K-562 leukemia it was 49.8 µM; in the assay with RPMI-8226 leukemia it was 6.89 µM; in the assay on BT-549 breast it was 22.7 µM. The TGI in the assay on CAKI-1 renal was 8.26 µM; in the assay on PC-3 prostate, 25.1 µM; in the assay with OVCAR-8 ovarian, 31.4 µM; with SF-295 CNS, 27.7 µM.

Take `Cc1ccc(-c2c(C#N)c(-c3ccc(N(C)C)cc3)c(C#N)c(=O)n2NS(=O)(=O)c2ccccc2)cc1`: the total growth inhibition concentration (TGI) in the assay with SK-MEL-28 melanoma, with HL-60(TB) leukemia, in the assay with HCT-116 colon, with SK-MEL-2 melanoma, in the assay on U251 CNS and with NCI-H460 lung was more than 100 µM throughout. The TGI with HT29 colon was more than 100 µM; with A498 renal, more than 100 µM; in the assay on UACC-257 melanoma it was more than 100 µM; in the assay on K-562 leukemia, more than 100 µM; in the assay on RPMI-8226 leukemia it was 33.2 µM; in the assay with BT-549 breast, more than 100 µM. Also, the TGI in the assay on CAKI-1 renal was 98.3 µM; with PC-3 prostate, more than 100 µM; in the assay on OVCAR-8 ovarian it was more than 100 µM; in the assay on SF-295 CNS, more than 100 µM.

The values are drawn from PubChem BioAssay (NCI).
